Measurements reported in patent US20230100062A1, “ANTIMICROBIAL PEPTIDES” (priority 2019, published 2023).
Values after ≈ are worked out from the molar mass of the structure shown. Square brackets hold non-standard residues; d marks the D form. Ends that are not written are not given here. * marks the point of attachment. For = O=C*

What was measured:
Hemolysis assay = assay type: cell-based, human; settings: human, human erythrocytes, 10% (vol/vol) suspension, pH 7.2
Description: (§1) Hemolysis assay. Hemolysis was determined using human erythrocytes sourced commercially from Cambridge Bioscience Ltd. and used within two days. 10% (vol/vol) suspensions of human erythrocytes were incubated with NI01, its derivatives or antibiotics. The cells were rinsed four times in 10 mM phosphate buffer saline (PBS, GibcoTM), pH 7.2, by repeated centrifugation and re-suspension (3 min at 3000×g). The cells were then incubated at room temperature for 1 h in either deionized water (fully hemolysed control), PBS, or with a corresponding antimicrobial agent in PBS. After centrifugation at 10,000×g for 5 min, the supernatant was separated from the pellet, and the absorbance was measured at 550 nm using a SpectraMax i3× Multi-Mode Microplate Reader (Molecular Devices). Absorbance of the suspension treated with deionized water defined complete hemolysis. The values given in Table S2 correspond to concentrations needed to lyse half of the sample population (50% lysis of erythrocytes) and are expressed as median hemolytic doses—HD50.

B. subtilis (ATCC 6633) = test: microbe, parasite or virus in culture; assay type: cell-based
Description: (§2) Minimum Inhibitory Concentrations assay. Minimum inhibitory concentrations (MICs) were determined by broth microdilution on P. aeruginosa, E. coli, S. aureus, M. luteus, B. subtilis, S. typhimurium and K. pneumoniae according to the Clinical and Laboratory Standards Institute. Typically, 100 μL of 0.5-1×10^6 CFU per ml of each bacterium in Mueller Hinton media broth (Oxoid) were incubated in 96-well microtiter plates with 100 μL of serial two-fold dilutions of the corresponding antimicrobial agent (from 100 to 0 μM) at 37° C. on a 3D orbital shaker. The absorbance was measured after the addition of NI01, its derivatives or an antibiotic at 600 nm using a SpectraMax i3× Multi-Mode Microplate Reader (Molecular Devices). MICs were defined as the lowest protein concentration that inhibited visible bacterial growth after 24 h at 37° C.

E. coli (ATCC 15597) = test: microbe, parasite or virus in culture; assay type: cell-based
Description: as §2

[1] = tested on: K. pneumoniae (NCTC 5055); test: microbe, parasite or virus in culture; assay type: cell-based
Description: as §2

M. luteus (ATCC 49732) = test: microbe, parasite or virus in culture; assay type: cell-based
Description: as §2

[2] = tested on: P. aeruginosa (ATCC 27853); test: microbe, parasite or virus in culture; assay type: cell-based; settings: for antibacterial activity in words: P. aeruginosa, summary of MICs
Description: as §2

S. aureus (ATCC 6538) = test: microbe, parasite or virus in culture; assay type: cell-based; settings: for antibacterial activity in words: S. aureus, summary of MICs
Description: as §2

S. typhimurium (DA6192) = test: Minimum inhibitory concentration, broth microdilution; assay type: cell-based; settings: 24 h at 37° C.
Description: as §2

Human erythrocytes = test: Hemolysis assay; assay type: cell-based
Description: as §1

[3] = In-liquid AFM imaging of SLBs mimicking bacterial membranes; settings: 0.25 μM
Source text: Lipid Vesicle Preparation. 1-palmitoyl-2-oleoyl-glycero-3-phosphocholine (POPC) with 1-palmitoyl-2-oleoyl-sn-glycero-3-phospho-(1′-rac-glycerol) (POPG) lipids used for vesicle construction were from Avanti Polar Lipids (Alabaster, USA). POPC was used as mammalian model membranes, and POPC/POPG (3:1, molar ratios) was used as bacterial model membranes. The lipids were weighted up, dissolved in chloroform-methanol (2:1, vol/vol), and dried under a nitrogen stream to form a thin film. The film was hydrated in 10 mM phosphate buffer (pH 7.4), vortexed for 2 min and bath sonicated for 30 min. The obtained suspension was extruded using a hand-held extruder (Avanti Polar lipids) (29 times, polycarbonate filter, 0.05 μm) to give a clear solution of small unilamellar vesicles, which were analysed (50 nm) by photon correlation spectroscopy (ZEN3600; Malvern Instruments, UK) following the re-suspension of vesicles to a final concentration of 1 mg/mL. Dynamic light scattering batch measurements were carried out in a low volume disposable cuvette at 25° C. Hydrodynamic radii were obtained through the fitting of autocorrelation data using the manufacturer's Dispersion Technology Software (version 5.10).
Preparation of SLBs for in-liquid AFM imaging. SLBs were formed using a vesicle fusion method as described elsewhere.^19 Freshly prepared vesicles (1.5 μL, 3 mg/mL) were added to cleaved mica that was pre-hydrated in 20 mM MOPS, 120 mM NaCl, 20 mM MgCl2 (pH 7.4).
After incubation over 45 min, the samples were washed 10 times with imaging buffer (20 mM MOPS, with 120 mM NaCl, pH 7.4) to remove unfused vesicles. The resulting SLBs were checked to confirm they were defect free. Mica discs (Agar Scientific, Stansted, UK) were glued to a metal puck, and freshly cleaved prior to lipid deposition.
In-liquid AFM imaging of SLBs. The topographic imaging of SLBs in aqueous buffers was performed on a Multimode 8 AFM system (Bruker AXS, USA) using Peak Force Tapping™ mode and MSNL-E cantilevers (Bruker AFM probes, USA). Images were taken at the PeakForce frequency of 2 kHz, PeakForce amplitude of 10-20 nm and PeakForce set-point of 10-30 mV (<100 pN). The images were then processed using Gwyddion (http://gwyddion.net) for line-by-line background subtraction (flattening) and plane fitting. NI01 or its derivatives were introduced into a 100-μL fluid cell (Bruker AXS, USA) to the final concentrations stated.

mammalian cells lines = settings: cited from earlier work
[4] = K. pneumoniae (NCTC 5055), 24 h at 37° C.

Compound: KYVSLAWKHKGTILKWINAGQSFEWIYKQIKKLWA-NH2 [α2α3α4]
- HC50 at 1 h (Hemolysis assay): 200 µg/mL

Compound: CC1(C)S[C@@H]2[C@H](NC(=O)[C@H](N)c3ccccc3)C(=O)N2[C@H]1C(=O)O [ampicillin, reference compound]
- MIC (B. subtilis (ATCC 6633); Bacillus subtilis, ATCC6633, B. subtilis (ATCC 6633), 24 h at 37° C., read-out: Minimum Inhibitory Concentration): 9 µg/mL (≈ 25.8 µM)
- MIC (E. coli (ATCC 15597); Escherichia coli, ATCC15597, E. coli (ATCC 15597), 24 h at 37° C., read-out: Minimum Inhibitory Concentration): 24 µg/mL (≈ 68.7 µM)
- MIC ([1]; Klebsiella pneumoniae, NCTC5055, K. pneumoniae (NCTC 5055), 24 h at 37° C., read-out: Minimum Inhibitory Concentration): 5 µg/mL (≈ 14.3 µM)
- MIC (M. luteus (ATCC 49732); Micrococcus luteus, ATCC49732, M. luteus (ATCC 49732), 24 h at 37° C., read-out: Minimum Inhibitory Concentration): 1 µg/mL (≈ 2.86 µM)
- MIC ([2]; Pseudomonas aeruginosa, ATCC27853, P. aeruginosa (ATCC 27853), 24 h at 37° C., read-out: Minimum Inhibitory Concentration): 8 µg/mL (≈ 22.9 µM)
- MIC (S. aureus (ATCC 6538); Staphylococcus aureus, ATCC6538, S. aureus (ATCC 6538), 24 h at 37° C., read-out: Minimum Inhibitory Concentration): 1 µg/mL (≈ 2.86 µM)
- MIC (S. typhimurium (DA6192); Salmonella enterica): 8 µg/mL (≈ 22.9 µM)

Compound: For-[dM][dA][dA][dF][dM][dK][dL][dI][dQ][dF][dL][dA][dT][dK]G[dQ][dK][dY][dV][dS][dL][dA][dW][dK][dH][dK]G[dT][dI][dL][dK][dW][dI][dN][dA]G[dQ][dS][dF][dE][dW][dI][dY][dK][dQ][dI][dK][dK][dL][dW][dA] [NI01 D-form]
- HC50 at 1 h (Hemolysis assay): 600 µg/mL
- hemolytic activity in words (Human erythrocytes): non-hemolytic
- mode of membrane disruption (AFM) [3]: strikingly similar pattern to that of the all-L form

Compound: KGTILKWINAGQSFEWIYKQIKKLWA-NH2 [α3α4]
- antibacterial activity in words [2]: ineffective
- antibacterial activity in words (S. aureus (ATCC 6538)): equally effective
- HC50 at 1 h (Hemolysis assay): 150 µg/mL
- mode of membrane disruption (AFM) [3]: mixed mode of membrane disruption

Compound: CC[C@H](C)[C@H](NC(=O)CN)C(=O)NCC(=O)N[C@@H](C)C(=O)N[C@H](C(=O)N[C@@H](CC(C)C)C(=O)N[C@@H](CCCCN)C(=O)N[C@H](C(=O)N[C@@H](CC(C)C)C(=O)N[C@H](C(=O)N[C@H](C(=O)NCC(=O)N[C@@H](CC(C)C)C(=O)N1CCC[C@H]1C(=O)N[C@@H](C)C(=O)N[C@@H](CC(C)C)C(=O)N[C@H](C(=O)N[C@@H](CO)C(=O)N[C@@H](Cc1c[nH]c2ccccc12)C(=O)N[C@H](C(=O)N[C@@H](CCCCN)C(=O)N[C@@H](CCCNC(=N)N)C(=O)N[C@@H](CCCCN)C(=O)N[C@@H](CCCNC(=N)N)C(=O)N[C@@H](CCC(N)=O)C(=O)N[C@@H](CCC(N)=O)C(N)=O)[C@@H](C)CC)[C@@H](C)CC)[C@@H](C)O)[C@@H](C)O)C(C)C)C(C)C [melittin]
- Minimum Inhibitory Concentration [1, 4]: 9 µg/mL

Compound: MAAFMRLIQFLATRGQRYVSLAWRRRGTILRWINAGQSFEWIYRQIRRLWA-NH2 [NI01 R-mutant]
- Minimum Inhibitory Concentration (B. subtilis (ATCC 6633); ATCC 6633, 24 h): 18 µg/mL
- Minimum Inhibitory Concentration (E. coli (ATCC 15597); ATCC 15597, 24 h): 9 µg/mL
- Minimum Inhibitory Concentration ([1]; NCTC 5055, 24 h): 18 µg/mL
- Minimum Inhibitory Concentration (M. luteus (ATCC 49732); ATCC 49732, 24 h): 2 µg/mL
- Minimum Inhibitory Concentration ([2]; ATCC 27853, 24 h): >300 µg/mL
- Minimum Inhibitory Concentration (S. aureus (ATCC 6538); ATCC 6538, 24 h): 5 µg/mL
- HC50 at 1 h (Hemolysis assay): 250 µg/mL
- hemolytic activity in words (Human erythrocytes): drastically increased
- mode of membrane disruption (AFM) [3]: exclusively thinning patches

Compound: polymyxin B [reference compound]
- Minimum Inhibitory Concentration (B. subtilis (ATCC 6633); B. subtilis (ATCC 6633), 24 h at 37° C.): 4 µg/mL
- Minimum Inhibitory Concentration (E. coli (ATCC 15597); E. coli (ATCC 15597), 24 h at 37° C.): 2 µg/mL
- Minimum Inhibitory Concentration [1, 4]: 4 µg/mL
- Minimum Inhibitory Concentration (M. luteus (ATCC 49732); M. luteus (ATCC 49732), 24 h at 37° C.): 2 µg/mL
- Minimum Inhibitory Concentration ([2]; P. aeruginosa (ATCC 27853), 24 h at 37° C.): 2 µg/mL
- Minimum Inhibitory Concentration (S. aureus (ATCC 6538); S. aureus (ATCC 6538), 24 h at 37° C.): 32 µg/mL
- Minimum Inhibitory Concentration (S. typhimurium (DA6192)): 2 µg/mL
- HD30, median hemolytic doses to achieve 50% lysis (Human erythrocytes; Human erythrocytes, 1 h at room temperature): 350 µg/mL

Compound: QKYVSLAWKHKGTILKWINA-NH2 [α2α3]
- concentration showing no hemolytic activity (Human erythrocytes): > 600 µg/mL

Compound: For-MAAFMKLIQFLATKGQKYVSLAWKHKGTILKWINAGQSFEWIYKQIKKLWA [NI01, epidermicin NI01]
- HC50 at 1 h (Hemolysis assay): 500 µg/mL
- hemolytic activity in words (Human erythrocytes): non-hemolytic
- toxicity towards mammalian cells lines (mammalian cells lines): negligible levels of toxicity

Compound: MAAFMKLIQFLATKGQKYVSLAWK-NH2 [α1α2]
- antibacterial activity in words [2]: ineffective
- antibacterial activity in words (S. aureus (ATCC 6538)): equally effective
- HC50 at 1 h (Hemolysis assay): 150 µg/mL
- mode of membrane disruption (AFM) [3]: extended petal-like pores
